Test results as given in PMC7180572, “5-Alkylamino-N-phenylpyrazine-2-carboxamides: Design, Preparation, and Antimycobacterial Evaluation” (Molecules, 2020).
pIC50: −log10 of the molar value. In brackets after ≈: the same amount, converted by molar mass. Several values for one entry are separate records, joined by “and”; a condition that tells them apart may be missing. Equal entries are not always repeated. Where two headings read alike, the source gives them in different places.

Experiments:
[1] = test system: Enterococcus faecalis ATCC 29212, CCM 4224; assay: Antibacterial microdilution broth method (EUCAST); type: cell-based; conditions: read-out: MIC EF
[2] = test system: Staphylococcus aureus spp.aureus ATCC 29213, CCM 4223; assay: Antibacterial microdilution broth method (EUCAST); type: cell-based; conditions: read-out: MIC SA
[3] = test system: Mycobacterium smegmatis DSM 43465 (ATCC 607); assay: Microdilution broth, modified Microplate Alamar Blue Assay, whole cell growth inhibition; type: cell-based; conditions: Mycolicibacterium smegmatis, read-out: MIC Mycobacterium smegmatis
[4] = test system: Candida tropicalis ATCC 750, CCM 8264; assay: Antifungal microdilution broth method (EUCAST); type: cell-based; conditions: read-out: MIC CT
[5] = test system: Candida krusei ATCC 6258, CCM 8271; assay: Antifungal microdilution broth method (EUCAST); type: cell-based; conditions: Pichia kudriavzevii, read-out: MIC CK
[6] = test system: Mycobacterium aurum DSM 43999 (ATCC 23366); assay: Microdilution broth, modified Microplate Alamar Blue Assay, whole cell growth inhibition; type: cell-based; conditions: Mycolicibacterium aurum, read-out: MIC Mycobacterium aurum
[7] = test system: Candida albicans ATCC 24433, CCM 8320; assay: Antifungal microdilution broth method (EUCAST); type: cell-based; conditions: read-out: MIC CA
[8] = test system: Klebsiella pneumoniae ATCC 10031, CCM 4415; assay: Antibacterial microdilution broth method (EUCAST)
[9] = test system: Pseudomonas aeruginosa ATCC 27853, CCM 3955; assay: Antibacterial microdilution broth method (EUCAST); type: cell-based; conditions: read-out: MIC PA
[10] = test system: Candida parapsilosis ATCC 22019, CCM 8260; assay: Antifungal microdilution broth method (EUCAST); type: cell-based; conditions: Lodderomyces parapsilosis, read-out: MIC CP
[11] = test system: Aspergillus fumigatus ATCC 204305; assay: Antifungal microdilution broth method (EUCAST); type: cell-based; conditions: read-out: MIC AF
[12] = test system: Staphylococcus aureus methicillin resistant ATCC 43300, CCM 4750; assay: microbe, parasite or virus in culture; type: cell-based; conditions: ATCC 43300 / CCM 4750 / MRSA, read-out: MIC MRSA
[13] = test system: Mycobacterium tuberculosis H37Ra ITM-M006710 (ATCC 9431); assay: Microdilution broth, modified Microplate Alamar Blue Assay, whole cell growth inhibition; type: cell-based; conditions: Mycobacterium tuberculosis, read-out: MIC Mtb H37Ra
[14] = test system: Trichophyton interdigitale ATCC 9533, CCM 8377; assay: Antifungal microdilution broth method (EUCAST); type: cell-based; conditions: read-out: MIC TI
[15] = test system: Absidia corymbifera CCM 8077 (Lichtheimia corymbifera); assay: Antifungal microdilution broth method (EUCAST); type: cell-based; conditions: read-out: MIC AC
[16] = test system: Staphylococcus epidermidis ATCC 12228, CCM 4418; assay: Antibacterial microdilution broth method (EUCAST); type: cell-based; conditions: read-out: MIC SE
[17] = test system: Acinetobacter baumanii ATCC 19606, DSM 30007; assay: Antibacterial microdilution broth method (EUCAST); type: cell-based; conditions: Acinetobacter baumannii
[18] = test system: Escherichia coli ATCC 25922, CCM 3954; assay: Antibacterial microdilution broth method (EUCAST); type: cell-based; conditions: read-out: MIC EC
[19] = test system: HepG2 cells; assay: HepG2 cytotoxicity, CellTiter 96 (MTS) assay; type: cell-based, human; conditions: for pIC50: Homo sapiens, HepG2, 24 h, read-out: HepG2 IC50
[20] = test system: Aspergillus flavus CCM 8363; assay: Antifungal microdilution broth method (EUCAST); type: cell-based; conditions: read-out: MIC AFla
[21] = in vitro, Middlebrook 7H9 broth, resazurin

| Structure (SMILES) | MIC ([1]; 24 h) | MIC ([1]; 48 h) | MIC ([2]; 24 h) | MIC ([2]; 48 h) | MIC [3] | MIC ([4]; 24 h) | MIC ([4]; 48 h) | MIC ([5]; 24 h) | MIC ([5]; 48 h) | MIC [6] | MIC ([7]; 24 h) | MIC ([7]; 48 h) | MIC KP ([8]; 24h) | MIC KP ([8]; 48h) | MIC ([9]; 72 h) | MIC ([9]; 120 h) | MIC ([10]; 24 h) | MIC ([10]; 48 h) | MIC ([11]; ATCC204305, 24 h) | MIC ([11]; ATCC204305, 48 h) | other results |
| --- | --- | --- | --- | --- | --- | --- | --- | --- | --- | --- | --- | --- | --- | --- | --- | --- | --- | --- | --- | --- | --- |
| CCCCCCCCNc1cnc(C(=O)Nc2cccc(C(F)(F)F)c2)cn1 [Compound 1f, 5-(Octylamino)-N-(3-(trifluoromethyl)phenyl)pyrazine-2-carboxamide] | > 500 µM | > 500 µM | > 500 µM | > 500 µM | ≥ 500 µg/mL | > 500 µM | > 500 µM | > 500 µM | > 500 µM | ≥ 500 µg/mL | > 500 µM | > 500 µM | > 500 µM | > 500 µM | > 500 µM | > 500 µM | > 500 µM | > 500 µM | > 500 µM | > 500 µM | MIC ([12]; 24 h): > 500 µM; MIC ([12]; 48 h): > 500 µM; MIC [13, 21]: ≥ 500 µg/mL; MIC ([14]; 72 h): > 500 µM; MIC ([14]; 120 h): > 500 µM; MIC ([15]; CCM8077, 24 h): > 500 µM; MIC ([15]; CCM8077, 48 h): > 500 µM; MIC ([16]; 24 h): > 500 µM; MIC ([16]; 48 h): > 500 µM; MIC ([17]; 24h): > 500 µM; MIC ([17]; 48h): > 500 µM; melting point: 135 to 136 °C; MIC ([18]; 24 h): > 500 µM; MIC ([18]; 48 h): > 500 µM; pIC50 [19]: 4.18; MIC ([20]; CCM8363, 24 h): > 500 µM; MIC ([20]; CCM8363, 48 h): > 500 µM |
| CCCCNc1cnc(C(=O)Nc2cccc(C(F)(F)F)c2)cn1 [Compound 1b, 5-(Butylamino)-N-(3-(trifluoromethyl)phenyl)pyrazine-2-carboxamide] | > 500 µM | > 500 µM | > 500 µM | > 500 µM | 3.13 µg/mL (≈ 9.25 µM) | > 125 µM | > 125 µM | > 125 µM | > 125 µM | 6.25 µg/mL (≈ 18.5 µM) | > 125 µM | > 125 µM | > 500 µM | > 500 µM | > 500 µM | > 500 µM | > 125 µM | > 125 µM | > 125 µM | > 125 µM | MIC ([12]; 24 h): > 500 µM; MIC ([12]; 48 h): > 500 µM; MIC ([13]; MIC converted to µM): 9.24 µM; MIC [13, 21]: 3.13 µg/mL; MIC ([14]; 72 h): > 125 µM; MIC ([14]; 120 h): > 125 µM; MIC ([15]; CCM8077, 24 h): > 125 µM; MIC ([15]; CCM8077, 48 h): > 125 µM; MIC ([16]; 24 h): > 500 µM; MIC ([16]; 48 h): > 500 µM; MIC ([17]; 24h): > 500 µM; MIC ([17]; 48h): > 500 µM; melting point: 141 to 142 °C; MIC ([18]; 24 h): > 500 µM; MIC ([18]; 48 h): > 500 µM; pIC50 [19]: 3.90; SI, selectivity index ([19]; IC50 (HepG2)/MIC against Mtb H37Ra (in µM)): 14 and 13.6; MIC ([20]; CCM8363, 24 h): > 125 µM; MIC ([20]; CCM8363, 48 h): > 125 µM |
| CCCCCCNc1cnc(C(=O)Nc2cccc(C(F)(F)F)c2)cn1 [Compound 1d, 5-(Hexylamino)-N-(3-(trifluoromethyl)phenyl)pyrazine-2-carboxamide] | > 500 µM | > 500 µM | > 500 µM | > 500 µM | ≥ 500 µg/mL | > 500 µM | > 500 µM | > 500 µM | > 500 µM | 25 µg/mL (≈ 68.2 µM) | > 500 µM | > 500 µM | > 500 µM | > 500 µM | > 500 µM | > 500 µM | > 500 µM | > 500 µM | > 500 µM | > 500 µM | MIC ([12]; 24 h): > 500 µM; MIC ([12]; 48 h): > 500 µM; MIC [13, 21]: ≥ 500 µg/mL; MIC ([14]; 72 h): > 500 µM; MIC ([14]; 120 h): > 500 µM; MIC ([15]; CCM8077, 24 h): > 500 µM; MIC ([15]; CCM8077, 48 h): > 500 µM; MIC ([16]; 24 h): > 500 µM; MIC ([16]; 48 h): > 500 µM; MIC ([17]; 24h): > 500 µM; MIC ([17]; 48h): > 500 µM; melting point: 148 to 149 °C; MIC ([18]; 24 h): > 500 µM; MIC ([18]; 48 h): > 500 µM; pIC50 [19]: < 4.60; MIC ([20]; CCM8363, 24 h): > 500 µM; MIC ([20]; CCM8363, 48 h): > 500 µM |
